The values below are quoted from earlier work in patent publication US9700504B2, “Composition and method for an intradermal hair growth solution” (priority 2012, dated 2017).

In the series the test system is human hair follicles. The following applies: ex vivo human hair follicles and cultured dermal papilla cells.

Consider “L-alanyl-L-histidyl-L-lysine-Cu^2+ [AHK-Cu]”, for which the “effect on human hair growth” value was “promotes the growth of human hair follicles”.
